Test results taken from PubChem BioAssay AID200 (DTP/NCI, 2004).
Where “and” joins values, the source holds several entries; their conditions need not be identical. Equal values may be shown once. Inconclusive results and toxic doses are left out.

System: B6C3F1 mice, B16 melanoma ip, median survival T/C
Test: NCI In Vivo Anticancer Drug Screen. Data for tumor model B16 Melanoma (intraperitoneal) in B6C3F1 mice
Conditions: endpoint: median survival time, higher = longer survival
Procedure, shortened: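 Antitumor effect was judged in mice with transplanted tumors by dividing the treated group's survival measure by that of vehicle controls.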

[1] = dose: 50.0 mg/kg/injection, schedule: Q01DX009 (ip), vehicle: saline with Tween-80
[2] = dose: 100.0 mg/kg/injection, schedule: Q01DX009 (ip), vehicle: saline with Tween-80
[3] = dose: 200.0 mg/kg/injection, schedule: Q01DX009 (ip), vehicle: saline with Tween-80
[4] = dose: 12.5 mg/kg/injection, schedule: Q01DX009 (ip), vehicle: Klucel (hydroxypropylcellulose) (HPC)
[5] = dose: 25.0 mg/kg/injection, schedule: Q01DX009 (ip), vehicle: Klucel (hydroxypropylcellulose) (HPC)
[6] = dose: 50.0 mg/kg/injection, schedule: Q01DX009 (ip), vehicle: Klucel (hydroxypropylcellulose) (HPC)
[7] = dose: 100.0 mg/kg/injection, schedule: Q01DX009 (ip), vehicle: Klucel (hydroxypropylcellulose) (HPC)
[8] = dose: 200.0 mg/kg/injection, schedule: Q01DX009 (ip), vehicle: Klucel (hydroxypropylcellulose) (HPC)
[9] = dose: 6.25 mg/kg/injection, schedule: Q01DX009 (ip), vehicle: Klucel (hydroxypropylcellulose) (HPC)

O=C1c2c(O)cccc2-c2nn(CCNCCO)c3ccc(NCCNCCO)c1c23
T/C (dose: 2.75 mg/kg/injection, schedule: Q01DX009 (ip), vehicle: water): 250 % of control
T/C (dose: 5.5 mg/kg/injection, schedule: Q01DX009 (ip), vehicle: water): 158 % of control

CCSC(=O)N1c2ccc(OC)cc2C=CC1C#N (centres undefined)
T/C [1]: 121 % of control and 95 % of control
T/C [2]: 124 % of control and 107 % of control
T/C [3]: 110 % of control

OCC1OC(n2cnc3c(SCc4ccccc4)ncnc32)C(O)C1O (centres undefined)
T/C (dose: 37.5 mg/kg/injection, schedule: Q01DX009 (ip), vehicle: saline with Tween-80): 171 % of control
T/C (dose: 75.0 mg/kg/injection, schedule: Q01DX009 (ip), vehicle: saline with Tween-80): 167 % of control
T/C (dose: 150.0 mg/kg/injection, schedule: Q01DX009 (ip), vehicle: saline with Tween-80): 182 % of control

Oc1c(Cl)cc(C(c2cc(Cl)c(O)c(Cl)c2)C(c2cc(Cl)c(O)c(Cl)c2)c2cc(Cl)c(O)c(Cl)c2)cc1Cl
T/C [4]: 88 % of control and 100 % of control
T/C [5]: 92 % of control and 99 % of control
T/C [6]: 93 % of control and 101 % of control
T/C [7]: 93 % of control and 101 % of control
T/C [8]: 104 % of control

BrC1CC(Br)c2c1c1c(c3c2C(Br)CC3Br)C(Br)CC1Br (centres undefined)
T/C (dose: 12.5 mg/kg/injection, schedule: Q01DX009 (ip), vehicle: saline with Tween-80): 108 % of control and 105 % of control
T/C (dose: 25.0 mg/kg/injection, schedule: Q01DX009 (ip), vehicle: saline with Tween-80): 114 % of control and 117 % of control and 123 % of control
T/C [1]: 114 % of control
T/C [2]: 118 % of control and 93 % of control
T/C [3]: 123 % of control

COCC1OC2OC3C(COC)OC(OC4C(COC)OC(OC5C(COC)OC(OC6C(COC)OC(OC7C(COC)OC(OC8C(COC)OC(OC1C(O)C2O)C(O)C8O)C(O)C7O)C(O)C6O)C(O)C5O)C(O)C4O)C(O)C3O (centres undefined) (tested in a mixture with another compound)
T/C [5]: 87 % of control
T/C (dose: 25.0 mg/kg/injection, schedule: Q04HX027 (ip), vehicle: Klucel (hydroxypropylcellulose) (HPC)): 93 % of control
T/C [6]: 90 % of control
T/C (dose: 50.0 mg/kg/injection, schedule: Q01DX009 (oral), vehicle: Klucel (hydroxypropylcellulose) (HPC)): 93 % of control
T/C (dose: 50.0 mg/kg/injection, schedule: Q04HX027 (ip), vehicle: Klucel (hydroxypropylcellulose) (HPC)): 86 % of control
T/C (dose: 50.0 mg/kg/injection, schedule: Q04HX027 (oral), vehicle: Klucel (hydroxypropylcellulose) (HPC)): 97 % of control
T/C [7]: 105 % of control
T/C (dose: 100.0 mg/kg/injection, schedule: Q01DX009 (oral), vehicle: Klucel (hydroxypropylcellulose) (HPC)): 89 % of control and 93 % of control
T/C (dose: 100.0 mg/kg/injection, schedule: Q04HX027 (ip), vehicle: Klucel (hydroxypropylcellulose) (HPC)): 97 % of control
T/C (dose: 100.0 mg/kg/injection, schedule: Q04HX027 (oral), vehicle: Klucel (hydroxypropylcellulose) (HPC)): 106 % of control
T/C [8]: 90 % of control
T/C (dose: 200.0 mg/kg/injection, schedule: Q04HX027 (oral), vehicle: Klucel (hydroxypropylcellulose) (HPC)): 105 % of control
T/C (dose: 400.0 mg/kg/injection, schedule: Q01DX009 (ip), vehicle: Klucel (hydroxypropylcellulose) (HPC)): 86 % of control
T/C (dose: 400.0 mg/kg/injection, schedule: Q01DX009 (oral), vehicle: Klucel (hydroxypropylcellulose) (HPC)): 86 % of control and 102 % of control
T/C (dose: 400.0 mg/kg/injection, schedule: Q04HX027 (oral), vehicle: Klucel (hydroxypropylcellulose) (HPC)): 101 % of control
T/C (dose: 800.0 mg/kg/injection, schedule: Q01DX009 (oral), vehicle: Klucel (hydroxypropylcellulose) (HPC)): 93 % of control
T/C (dose: 800.0 mg/kg/injection, schedule: Q04HX027 (oral), vehicle: Klucel (hydroxypropylcellulose) (HPC)): 110 % of control
T/C (dose: 1600.0 mg/kg/injection, schedule: Q01DX009 (oral), vehicle: Klucel (hydroxypropylcellulose) (HPC)): 92 % of control
T/C (dose: 1600.0 mg/kg/injection, schedule: Q04HX027 (oral), vehicle: Klucel (hydroxypropylcellulose) (HPC)): 103 % of control
T/C (dose: 3200.0 mg/kg/injection, schedule: Q01DX009 (oral), vehicle: Klucel (hydroxypropylcellulose) (HPC)): 95 % of control

CCC(C)Nc1ccc(N)cc1 (centres undefined)
T/C (dose: 0.09 mg/kg/injection, schedule: Q01DX009 (ip), vehicle: saline + Tween-80 + alcohol): 98 % of control
T/C (dose: 0.18 mg/kg/injection, schedule: Q01DX009 (ip), vehicle: saline + Tween-80 + alcohol): 94 % of control
T/C (dose: 0.37 mg/kg/injection, schedule: Q01DX009 (ip), vehicle: saline + Tween-80 + alcohol): 109 % of control
T/C (dose: 0.75 mg/kg/injection, schedule: Q01DX009 (ip), vehicle: saline + Tween-80 + alcohol): 109 % of control
T/C (dose: 1.5 mg/kg/injection, schedule: Q01DX009 (ip), vehicle: Klucel (hydroxypropylcellulose) (HPC)): 91 % of control
T/C (dose: 1.5 mg/kg/injection, schedule: Q01DX009 (ip), vehicle: saline + Tween-80 + alcohol): 113 % of control
T/C (dose: 3.0 mg/kg/injection, schedule: Q01DX009 (ip), vehicle: Klucel (hydroxypropylcellulose) (HPC)): 111 % of control
T/C (dose: 3.0 mg/kg/injection, schedule: Q01DX009 (ip), vehicle: saline + Tween-80 + alcohol): 97 % of control
T/C (dose: 6.0 mg/kg/injection, schedule: Q01DX009 (ip), vehicle: Klucel (hydroxypropylcellulose) (HPC)): 96 % of control
T/C (dose: 12.0 mg/kg/injection, schedule: Q01DX009 (ip), vehicle: Klucel (hydroxypropylcellulose) (HPC)): 89 % of control

CC1[C@@H]2CC=C3[C@H]4CCC5Cc6nc7c(nc6C[C@@]5(C)C4CC(=O)[C@]32CO[C@]12OC(C)(C)CC2O)CC1CC[C@@H]2C3=C[C@H]4O[C@@]5(O[C@@](C)(CO)C[C@@H]5O)C(C)[C@@]4(O)[C@]3(C)[C@@H](O)CC2[C@]1(C)C7 (some centres undefined)
T/C (dose: 6.25 micrograms/kg/injection, schedule: Q01DX009 (ip), vehicle: saline + alcohol): 101 % of control
T/C (dose: 12.5 micrograms/kg/injection, schedule: Q01DX009 (ip), vehicle: saline + alcohol): 98 % of control
T/C (dose: 25.0 micrograms/kg/injection, schedule: Q01DX009 (ip), vehicle: saline + alcohol): 98 % of control
T/C (dose: 50.0 micrograms/kg/injection, schedule: Q01DX009 (ip), vehicle: saline + alcohol): 102 % of control

CC1(C)N=C(N)N=C(N)N1c1cccc(CCCCc2cccc(N)c2)c1
T/C [9]: 103 % of control
T/C [4]: 108 % of control
T/C [5]: 114 % of control

O=S(CCCl)CCCl
T/C [9]: 96 % of control and 107 % of control
T/C [4]: 98 % of control and 101 % of control
T/C [5]: 98 % of control and 107 % of control
T/C [6]: 89 % of control and 96 % of control
